From patent US20050064001A1, “Multi-layer adjuvants for controlled delivery of agro-materials into plant tissues” (priority 2001, published 2005)

Columns and labels:
[1] = tested on: Citrus Lemon Urika chlorotic foliage; assay: Biological activity of iron sprayed on chlorotic foliage (leaf color, chlorophyll, iron content, leaf burns); format: in vivo; conditions: for Leaf Color: score 1 yellow, 2 light green, 3 vigorously green leaves
From the text: Effect of Ferri-Vant (Multi-Layer Adjuvant Coated Fe2(SO4)3 on the Biological Activity of Iron Sprayed on Citrus Lemon Urika Chlorotic Foliage
The Ferri-Vant effect was compared with the untreated control, Fe2(SO4)3 sprayed alone and Fe2(SO4)3 treated with the surfactant Silwet^R L-77. Ten leaves from five trees sprayed for each treatment were sampled and scored for green color. The scoring was based as follows: 1—yellow leaves; 2—light green leaves; 3—vigorously green leaves. Chlorophyll level was determined spectrophotometrically as reported by Moran [Moran, R., Plant Physiol. 69:1376-1381 […]]. Iron content was obtained using the ICP system and leaf burns were visually detected.

[2] = tested on: Citrus Grandis isolated cuticles; assay: Penetration of phosphorous (32P) through isolated cuticles; format: in vitro ADME; conditions: 60% relative humidity, 25° C.
Procedure: Effect of MKP-Nutri-Vant^R I on the Percent of Penetration of Phosphorous (^32P) Through Citrus Grandis Isolated Cuticles
(§1) The experiment was carried out for three weeks in a controlled shaking chamber set at 60% relative humidity and 25° C. The values are calculated from the transformation formula −ln(1−Mt/Mo). Mt is the accumulation of radioactivity penetrated in each time period tested; Mo is the total radioactivity applied to the isolated cuticle, based on Schönherr and Riederer [Schonherr, J. and M. Riederer, Plant Cell Environ. […] The values are the means of at least 20 replicates ±S.E.

Citrus Grandis leaves = assay: Penetration of phosphorous (32P) into leaves; format: in vitro ADME; conditions: 60% relative humidity, 25° C.
Procedure: as §1
Effect of MKP-Nutri-Vant II on the Percent of Penetration of Phosphorous (^32P) into Citrus Grandis Leaves
The experiment was carried out for two weeks in a controlled shaking chamber set at 60% relative humidity and 25° C. All the details are similar to those in the previous table.

Row | SMILES | Leaf Color ([1]; day 0) | Leaf Color ([1]; day 2) | Iron Content at day4 ([1]; day 4, leaves, ICP system) [mg/g] | Leaf Color ([1]; day 4) | Chlorophyll level at day 4, Chl. A ([1]; day 4, spectrophotometric) [mg/sq. cm leaf area] | Chlorophyll level at day 4, Chl. B ([1]; day 4, spectrophotometric) [mg/sq. cm leaf area] | Leaf Color ([1]; day 10) | % Penetration of 32P ([2]; 0 hours, mean of at least 20 replicates ±S.E.) [%] | % Penetration of 32P ([2]; 24 hours, mean ±S.E.) [%] | % Penetration of 32P ([2]; 48 hours, mean ±S.E.) [%] | % Penetration of 32P ([2]; 96 hours, mean ±S.E.) [%] | % Penetration of 32P ([2]; 168 hours, mean ±S.E.) [%] | % Penetration of 32P ([2]; 336 hours, mean ±S.E.) [%] | % Penetration of 32P ([2]; 504 hours, mean ±S.E.) [%] | % Penetration of 32P (Citrus Grandis leaves; 0 hours) [%] | % Penetration of 32P (Citrus Grandis leaves; 48 hours) [%] | % Penetration of 32P (Citrus Grandis leaves; 96 hours) [%] | % Penetration of 32P (Citrus Grandis leaves; 168 hours) [%] | % Penetration of 32P (Citrus Grandis leaves; 336 hours) [%]
1 | O=S(=O)([O-])[O-].O=S(=O)([O-])[O-].O=S(=O)([O-])[O-].[Fe+3].[Fe+3] [Fe2(SO4)3 alone, Fe2(SO4)3] | 1 | 1 | 0.61 | 1.3 ± 0.4 | 2.8 | 1.2 | 1.2 ± 0.4 | – | – | – | – | – | – | – | – | – | – | – | –
2 | O=P([O-])(O)O.[K+] [MK^32P alone, Monopotassium phosphate] | – | – | – | – | – | – | – | 0 | 2.6 ± 0.8 | 3.4 ± 1.1 | 5.7 ± 1.4 | 6.3 ± 1.9 | 7.5 ± 1.6 | 7.9 ± 1.9 | 0 | 3.1 ± 0.8 | 4.7 ± 0.6 | 5.5 ± 0.6 | 6.4 ± 0.4
